Test results reported in ChEMBL document CHEMBL1201862, “PubChem BioAssay data set” (2004).
Activity calls are given as the source filed them.

Columns and labels:
[1] = viability of uninfected HEp-2 cells – cell-based, HTS, cytotoxicity control for RSV inhibitor project, dose response (AID 2410); format: functional; conditions: human respiratory syncytial virus
[2] = Luminescence Cell-Based Dose Retest to Confirm Inhibitors of Cancer Stem Cells. [Related pubchem assays (depositor defined):AID2717, AID2721]; format: functional; conditions: Homo sapiens
[3] = biological target: Cytochrome P450 2C9 (Homo sapiens, UniProt P11712)
[4] = biological target: Cytochrome P450 2D6 (Homo sapiens, UniProt P10635);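 also: CYP2D6 member of a cytochrome P450 panel assay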
[5] = test system: INS1; assay: INS-1E survival protection against cytokine death – cell-based, luminescence, retest, dose response (AID 449756); format: functional; conditions: Rattus norvegicus, INS1;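 also: cell death triggered by IL-1 beta plus TNF-alpha plus IFN-gamma mixture; protective hits raise ATP signal compared with cytokine alone wells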
[6] = biological target: Large T antigen (Simian virus 40, UniProt P03070); format: functional, Betapolyomavirus macacae;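 also: Confirmatory-stage PubChem screen for compounds that inhibit SV40 T antigen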
[7] = biological target: T1, Streptokinase A (Streptococcus pyogenes serotype M1, UniProt P10520); assay: viability-normalized secreted streptokinase activity reduction – plasminogen activation absorbance, OD405, dose response (AID 1914); format: functional, Streptococcus pyogenes M1 GAS;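 also: secreted streptokinase activity via plasminogen activation per viability signal from cell pellet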
T1 sequence (P10520 whole entry): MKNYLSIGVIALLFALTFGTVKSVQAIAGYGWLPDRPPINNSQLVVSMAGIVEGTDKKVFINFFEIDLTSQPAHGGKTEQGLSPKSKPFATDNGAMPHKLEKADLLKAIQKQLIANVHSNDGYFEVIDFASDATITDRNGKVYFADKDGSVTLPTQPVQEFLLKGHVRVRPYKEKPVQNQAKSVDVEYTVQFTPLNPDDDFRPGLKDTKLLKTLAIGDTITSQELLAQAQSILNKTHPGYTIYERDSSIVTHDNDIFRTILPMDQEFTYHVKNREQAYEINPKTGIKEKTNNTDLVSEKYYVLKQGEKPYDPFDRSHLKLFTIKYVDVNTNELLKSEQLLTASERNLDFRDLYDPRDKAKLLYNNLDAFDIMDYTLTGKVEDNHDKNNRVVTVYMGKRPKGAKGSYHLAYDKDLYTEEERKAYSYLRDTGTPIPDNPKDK

[8] = Luminescence Cell-Based Dose Response HTS to Identify Activators of Luciferase Translation or Activity in H4 […] Cells. [Related pubchem assays: 1829 (Project Summary), 1814 (Primary HTS)]; format: functional
[9] = test system: Streptococcus; assay: GAS UMAA2166 growth inhibition – luminescence, BacTiterGlo, counter-screen for streptokinase expression inhibitor project, dose response (AID 1915); format: functional, organism-based;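 also: potency for reduction of bacterial viability or growth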
[10] = test system: Streptococcus sp. 'group A'; assay: Streptococcus pyogenes SK(-)GAS viability under kanamycin – luminescence, BacTiterGlo, confirmation, counter-screen for streptokinase expression inhibitor project, dose response (AID 1900); format: functional, organism-based
[11] = Luminescence Cell-Based Dose Confirmation HTS to Identify Activators of 5'UTR Stem-Loop Driven Alpha-Synuclein mRNA Translation in H4 Neuroglioblastoma Cells. [Related pubchem assays: 1829 (Project Summary), 1814 (Primary HTS)]; format: functional
[12] = test system: H4; assay: Luminescence Cell-Based Dose Response HTS to Identify Activators of 5'UTR Stem-Loop Driven Prion Protein mRNA Translation in H4 Neuroglioblastoma Cells. [Related pubchem assays: 1829 (Project Summary), 1814 (Primary HTS)]; format: functional; conditions: Homo sapiens
[13] = biological target: T2, Cytochrome P450 1A2 (Homo sapiens, UniProt P05177);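 also: PubChem cytochrome P450 panel assay, CYP1A2 panel member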
T2 sequence (P05177 whole entry): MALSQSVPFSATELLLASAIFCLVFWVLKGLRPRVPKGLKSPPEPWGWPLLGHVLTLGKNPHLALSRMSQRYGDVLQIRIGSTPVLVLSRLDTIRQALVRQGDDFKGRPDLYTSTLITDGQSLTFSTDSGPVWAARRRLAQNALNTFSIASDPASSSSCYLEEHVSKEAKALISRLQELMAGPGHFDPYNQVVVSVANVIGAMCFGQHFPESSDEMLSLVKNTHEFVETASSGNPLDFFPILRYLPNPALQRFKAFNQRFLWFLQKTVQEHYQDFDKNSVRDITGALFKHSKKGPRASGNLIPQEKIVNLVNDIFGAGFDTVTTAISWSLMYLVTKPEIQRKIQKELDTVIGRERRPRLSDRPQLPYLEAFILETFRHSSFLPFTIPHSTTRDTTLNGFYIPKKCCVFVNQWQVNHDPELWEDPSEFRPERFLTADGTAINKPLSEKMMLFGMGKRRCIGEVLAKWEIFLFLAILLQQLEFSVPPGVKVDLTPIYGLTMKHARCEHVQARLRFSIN

[14] = biological target: Cytochrome P450 3A4 (Homo sapiens, UniProt P08684);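 also: CYP3A4 tested as one member of a cytochrome P450 panel screen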
[15] = viability of PTEN-deleted HCT116 cells – cell-based, HCT116 PTEN knockout, dose response (AID 1047); format: functional;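 also: HCT116 colon tumor cells with PTEN knocked out; cells exposed to compound for 60 hours before readout; potency for loss of cell viability measured by luminescence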
[16] = viability of HCT116 lacking mutant beta-catenin – cell-based, human colon tumor, dose response (AID 1045); format: functional;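 also: HCT116 colon tumor cells with beta catenin knocked out; cells exposed to compound for 60 hours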
[17] = biological target: T3, Protein RecA (Mycobacterium tuberculosis, UniProt P9WHJ3); assay: Fluorescence Cell-Free Homogeneous Dose Retest to Identify Inhibitors of RecA-Intein Splicing Activity. [Related pubchem assays (depositor defined):AID2097, AID2223, AID489010, AID492950]; format: functional
T3 sequence (P9WHJ3 whole entry): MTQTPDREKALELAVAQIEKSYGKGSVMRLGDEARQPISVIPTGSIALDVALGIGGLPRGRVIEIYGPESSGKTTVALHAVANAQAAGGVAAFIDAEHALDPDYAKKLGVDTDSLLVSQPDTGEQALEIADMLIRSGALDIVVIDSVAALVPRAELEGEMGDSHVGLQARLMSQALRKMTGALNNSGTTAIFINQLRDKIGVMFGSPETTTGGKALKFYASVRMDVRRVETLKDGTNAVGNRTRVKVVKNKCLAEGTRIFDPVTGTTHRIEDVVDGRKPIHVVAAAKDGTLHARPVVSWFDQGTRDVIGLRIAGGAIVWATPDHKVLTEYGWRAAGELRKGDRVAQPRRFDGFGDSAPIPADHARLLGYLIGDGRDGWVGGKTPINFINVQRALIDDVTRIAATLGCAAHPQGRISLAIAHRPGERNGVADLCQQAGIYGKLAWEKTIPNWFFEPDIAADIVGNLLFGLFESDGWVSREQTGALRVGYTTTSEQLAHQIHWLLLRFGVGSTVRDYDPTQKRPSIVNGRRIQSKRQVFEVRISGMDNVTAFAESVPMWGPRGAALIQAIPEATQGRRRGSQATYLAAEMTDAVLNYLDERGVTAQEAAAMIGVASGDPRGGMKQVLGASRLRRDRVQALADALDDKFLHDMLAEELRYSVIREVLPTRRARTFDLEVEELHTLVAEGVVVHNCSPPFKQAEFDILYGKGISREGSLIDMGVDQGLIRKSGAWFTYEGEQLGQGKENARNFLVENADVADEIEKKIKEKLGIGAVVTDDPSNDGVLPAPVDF

[18] = biological target: T4, Replicative DNA helicase DnaB (Mycobacterium tuberculosis, UniProt P9WMR3); assay: DnaB intein splicing inhibitors, dose response, biochemical, cell-free fluorescence (AID 449749); format: functional
T4 sequence (P9WMR3 whole entry): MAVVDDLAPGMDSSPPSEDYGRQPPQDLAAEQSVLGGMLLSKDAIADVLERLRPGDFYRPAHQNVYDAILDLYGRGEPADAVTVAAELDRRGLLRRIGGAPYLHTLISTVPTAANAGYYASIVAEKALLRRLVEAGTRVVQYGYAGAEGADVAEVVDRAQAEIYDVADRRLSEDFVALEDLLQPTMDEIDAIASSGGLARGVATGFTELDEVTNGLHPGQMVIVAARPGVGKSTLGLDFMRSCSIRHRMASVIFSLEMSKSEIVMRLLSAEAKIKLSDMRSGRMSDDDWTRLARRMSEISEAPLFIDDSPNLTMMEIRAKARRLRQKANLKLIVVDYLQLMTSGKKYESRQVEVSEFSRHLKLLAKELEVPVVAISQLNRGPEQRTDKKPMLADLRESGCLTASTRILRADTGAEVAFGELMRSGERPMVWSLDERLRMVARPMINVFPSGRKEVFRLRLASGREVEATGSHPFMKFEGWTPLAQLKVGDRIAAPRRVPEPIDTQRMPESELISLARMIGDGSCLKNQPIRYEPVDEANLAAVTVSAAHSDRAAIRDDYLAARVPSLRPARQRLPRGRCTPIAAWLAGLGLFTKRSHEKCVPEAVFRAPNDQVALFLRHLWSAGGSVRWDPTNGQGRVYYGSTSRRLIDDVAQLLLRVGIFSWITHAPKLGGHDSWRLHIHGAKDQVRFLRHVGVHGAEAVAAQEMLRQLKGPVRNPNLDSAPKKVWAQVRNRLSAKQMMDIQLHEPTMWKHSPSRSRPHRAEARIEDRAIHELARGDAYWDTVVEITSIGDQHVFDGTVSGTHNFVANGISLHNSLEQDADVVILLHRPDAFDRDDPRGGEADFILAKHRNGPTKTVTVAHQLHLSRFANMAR

[19] = biological target: Cytochrome P450 2C19 (Homo sapiens, UniProt P33261); assay: Cytochrome panel assay with activity outcomes. Panel member name: p450-cyp2c19 Compounds with AC50 equal or less than 10 uM are considered active; format: functional; conditions: read-out: AC50
Sequence of Cytochrome P450 2C19 (P33261 whole entry): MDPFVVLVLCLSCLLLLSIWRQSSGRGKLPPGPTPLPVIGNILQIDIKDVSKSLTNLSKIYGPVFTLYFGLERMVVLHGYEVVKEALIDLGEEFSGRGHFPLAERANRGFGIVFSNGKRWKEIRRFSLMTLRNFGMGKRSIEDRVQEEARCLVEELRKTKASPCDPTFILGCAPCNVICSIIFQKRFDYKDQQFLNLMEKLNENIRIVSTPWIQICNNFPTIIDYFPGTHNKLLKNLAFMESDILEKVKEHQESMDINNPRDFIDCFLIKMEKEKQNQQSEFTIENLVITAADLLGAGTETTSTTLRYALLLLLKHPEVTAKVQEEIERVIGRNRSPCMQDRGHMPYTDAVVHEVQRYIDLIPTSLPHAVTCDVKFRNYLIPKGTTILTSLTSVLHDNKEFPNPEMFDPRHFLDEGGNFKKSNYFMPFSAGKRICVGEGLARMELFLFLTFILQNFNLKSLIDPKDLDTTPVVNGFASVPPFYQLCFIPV

Sequence of Large T antigen (P03070 whole entry): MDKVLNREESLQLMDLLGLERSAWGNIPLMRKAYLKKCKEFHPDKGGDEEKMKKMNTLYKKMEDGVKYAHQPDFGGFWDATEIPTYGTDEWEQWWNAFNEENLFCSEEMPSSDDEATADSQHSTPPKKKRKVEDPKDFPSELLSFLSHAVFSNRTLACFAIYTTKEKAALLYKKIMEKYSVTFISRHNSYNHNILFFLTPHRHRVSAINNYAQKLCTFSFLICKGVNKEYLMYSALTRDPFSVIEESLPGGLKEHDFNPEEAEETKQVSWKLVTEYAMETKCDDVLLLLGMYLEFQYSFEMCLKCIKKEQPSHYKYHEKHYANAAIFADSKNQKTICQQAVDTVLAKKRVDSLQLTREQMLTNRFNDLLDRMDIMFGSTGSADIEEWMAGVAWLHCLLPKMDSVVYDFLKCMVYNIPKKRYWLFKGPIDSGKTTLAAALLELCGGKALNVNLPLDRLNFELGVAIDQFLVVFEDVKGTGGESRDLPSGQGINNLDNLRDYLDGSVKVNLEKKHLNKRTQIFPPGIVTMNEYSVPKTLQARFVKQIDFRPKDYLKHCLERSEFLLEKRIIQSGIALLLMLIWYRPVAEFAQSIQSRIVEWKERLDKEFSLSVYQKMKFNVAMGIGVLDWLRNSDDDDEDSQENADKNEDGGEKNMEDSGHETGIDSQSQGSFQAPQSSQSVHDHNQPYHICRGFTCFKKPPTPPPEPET
Sequence of Cytochrome P450 2C9 (P11712 whole entry): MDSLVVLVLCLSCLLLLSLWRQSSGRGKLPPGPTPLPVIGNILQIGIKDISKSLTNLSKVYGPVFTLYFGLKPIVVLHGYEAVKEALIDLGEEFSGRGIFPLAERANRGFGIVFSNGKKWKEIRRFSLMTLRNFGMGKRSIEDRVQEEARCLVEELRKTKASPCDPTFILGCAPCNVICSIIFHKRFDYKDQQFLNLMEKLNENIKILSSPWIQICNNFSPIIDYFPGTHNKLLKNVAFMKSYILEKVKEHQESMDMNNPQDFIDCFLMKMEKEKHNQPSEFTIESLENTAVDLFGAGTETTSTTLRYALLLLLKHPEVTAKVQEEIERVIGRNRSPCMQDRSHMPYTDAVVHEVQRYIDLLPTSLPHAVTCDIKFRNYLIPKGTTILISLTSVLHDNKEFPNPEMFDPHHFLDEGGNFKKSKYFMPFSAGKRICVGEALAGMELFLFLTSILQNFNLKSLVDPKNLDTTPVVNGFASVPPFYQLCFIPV
Sequence of Cytochrome P450 2D6 (P10635 whole entry): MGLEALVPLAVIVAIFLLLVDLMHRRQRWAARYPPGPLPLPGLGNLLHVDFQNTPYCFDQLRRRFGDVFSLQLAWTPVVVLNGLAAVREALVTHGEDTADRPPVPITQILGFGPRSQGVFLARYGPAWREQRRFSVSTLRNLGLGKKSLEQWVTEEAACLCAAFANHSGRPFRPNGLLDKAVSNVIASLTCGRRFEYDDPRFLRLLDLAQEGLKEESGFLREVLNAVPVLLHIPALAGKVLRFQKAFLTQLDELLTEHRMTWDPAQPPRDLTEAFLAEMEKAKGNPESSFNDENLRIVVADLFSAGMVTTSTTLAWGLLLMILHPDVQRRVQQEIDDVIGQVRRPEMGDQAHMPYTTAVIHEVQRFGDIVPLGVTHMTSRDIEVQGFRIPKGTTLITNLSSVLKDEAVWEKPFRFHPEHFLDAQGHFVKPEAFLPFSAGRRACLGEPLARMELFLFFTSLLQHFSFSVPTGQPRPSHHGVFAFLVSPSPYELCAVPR
Sequence of Cytochrome P450 3A4 (P08684 whole entry): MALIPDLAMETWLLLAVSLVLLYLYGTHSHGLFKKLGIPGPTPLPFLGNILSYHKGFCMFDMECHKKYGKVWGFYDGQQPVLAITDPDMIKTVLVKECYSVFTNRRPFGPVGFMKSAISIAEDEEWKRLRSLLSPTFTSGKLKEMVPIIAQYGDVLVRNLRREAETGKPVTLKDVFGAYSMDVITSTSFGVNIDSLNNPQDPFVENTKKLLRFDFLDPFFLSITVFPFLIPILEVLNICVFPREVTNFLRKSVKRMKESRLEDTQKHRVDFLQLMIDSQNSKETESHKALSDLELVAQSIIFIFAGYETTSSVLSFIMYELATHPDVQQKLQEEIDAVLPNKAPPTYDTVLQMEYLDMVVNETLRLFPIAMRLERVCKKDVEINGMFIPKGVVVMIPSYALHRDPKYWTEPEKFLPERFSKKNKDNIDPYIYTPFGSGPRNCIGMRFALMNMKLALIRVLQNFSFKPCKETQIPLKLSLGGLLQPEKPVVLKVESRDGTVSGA

## O=C(CN(c1cccc(C(F)(F)F)c1)S(=O)(=O)c1ccc(Cl)c([N+](=O)[O-])c1)NCc1ccccc1Cl
[1]
  CC50: > 50 µM (active)
[2]
  AC50: 1.72 µM (active)

## COc1ccc(NC(=O)CSc2nc3ccccc3cc2Cc2ccccc2)cc1
[3]
  AC50: 1.26 µM (inconclusive)
[4]
  AC50: 0.2 µM (inconclusive)

## COc1ccc(-c2cc(C(F)F)nc(-n3nc(C)cc3C)n2)cc1
[4]
  AC50: 22.4 µM (inconclusive)

## CCc1ccc(N(CC(=O)Nc2nc3ccc(C)cc3s2)S(=O)(=O)c2c(C)noc2C)cc1
[2]
  AC50: 3.45 µM (active)

## CCN(CC)S(=O)(=O)c1cccc(NC(=O)c2cc3ccccc3o2)c1
[1]
  CC50: 10.9 µM (active)

## CCNc1ncc2nc(-c3ccc(F)cc3)c(=O)n(C[C@H]3CCCO3)c2n1
[4]
  AC50: 0.631 µM (inconclusive)

## Oc1ccc(Cl)cc1/C=N\c1cnc2ccccc2c1
[4]
  AC50: 5.01 µM (inconclusive)

## COc1ccc(-c2c([C@H]3[C@H]4C=CC[C@@H](C)[C@@H]4C(=O)N3Cc3ccccc3)ccc3ccccc23)cc1
[5]
  AC50: 9.01 µM (active)

## CCN(c1ccccc1)S(=O)(=O)c1ccc(NC(=S)NC(=O)c2ccc(Br)o2)cc1
[4]
  AC50: 3.16 µM (inconclusive)

## CCOc1cc(/C=C2/NC(=O)N(CC(=O)OC)C2=O)ccc1O
[6]
  IC50: 12.5 µM (active)

## O=C(c1cccc(-c2ccc(O)cc2)c1)N1CCOCC1
[6]
  IC50: 10.2 µM (active)

## CC(C)(C)c1ccc(-c2noc(-c3ccc4c(c3)CCO4)n2)cc1
[7]
  EC50: 46 µM (active)
[8]
  EC50: 2.25 µM (active)
[9]
  EC50: > 150 µM (not active)
[10]
  EC50: 5.26 µM (active)
[11]
  EC50: 0.493 µM (active)
[12]
  EC50: 0.553 µM (active)

## CN1CCN(c2ncncc2-c2ccccc2C(F)(F)F)CC1
[13]
  AC50: 31.6 µM (inconclusive)
[14]
  AC50: 3.98 µM (inconclusive)
[4]
  AC50: 20 µM (inconclusive)

## O=C(Nc1ccc(Cl)c(Cl)c1)Nc1nnc(CC2=CCCCC2)s1
[5]
  AC50: 3.51 µM (active)

## CCC(=O)O[C@@]1(C(=O)CCl)[C@@H](C)C[C@@H]2[C@H]3CCC4=CC(=O)C=C[C@@]4(C)[C@]3(F)[C@@H](O)C[C@@]21C
[3]
  AC50: 15.8 µM (inconclusive)
[4]
  AC50: 10 µM (inconclusive)

## Cc1c(C(=O)N(CCc2ccccc2)Cc2ccccc2)cccc1[N+](=O)[O-]
[1]
  CC50: 25.5 µM (active)

## CCC(C)(C)NC(=O)CSc1nc(Cc2ccccc2)nc2ccccc12
[1]
  CC50: > 50 µM (active)

## CCc1ccc(Nc2cnn(-c3nc4ccccc4s3)c(=O)c2Cl)cc1
[1]
  CC50: 44.6 µM (active)

## O=C(CCc1nc(-c2ccccc2)no1)NCCc1ccccc1
[3]
  AC50: 15.8 µM (inconclusive)
[4]
  AC50: 39.8 µM (inconclusive)

## Cc1noc(C)c1C(=O)Nc1ccc(C#N)cc1
[1]
  CC50: 23.4 µM (active)

## Cc1ccc(-c2noc(CCC(=O)NCCCN3CCN(c4cccc(Cl)c4)CC3)n2)cc1
[1]
  CC50: > 50 µM (active)

## C[C@@H]1CC[C@]2(C(=O)O)CC[C@]3(C)C(=CCC4[C@]56CC[C@@](O)(OC5)C(C)(C)C6CC[C@]43C)C2[C@H]1C (stereo partly specified)
[2]
  AC50: 5.61 µM (active)

## CCS(=O)(=O)Nc1ccc(-c2cc(-c3ccccc3)c3cc(C)ccc3n2)cc1
[7]
  EC50: > 150 µM (not active)
[15]
  EC50: 27.6 µM (active)
[2]
  AC50: 3.42 µM (active)
[16]
  EC50: 24.1 µM (active)
[9]
  EC50: 7.65 µM (active)
[10]
  EC50: 7.31 µM (active)

## O=C(Nc1ccccc1)Nc1ccc(O)c2ccccc12
[17]
  EC50: 0.762 µM (active)
[2]
  AC50: 2.56 µM (active)
[18]
  AC50: 9.08 µM (active)

## Cc1cc(O)nc(N/N=C/c2ccc(-c3ccc(F)cc3)o2)n1
[2]
  AC50: 9.21 µM (active)

## Cc1nc(Cl)cc(N/N=C/c2ccc(O)cc2)n1
[6]
  IC50: 8.13 µM (active)

## CSc1nncn1/N=C/c1ccc2c(c1)OCO2
[19]
  AC50: 25.1 µM (inconclusive)
[4]
  AC50: 22.4 µM (inconclusive)

## Clc1cccc(Nc2nnc(-c3ccccc3)c3ccccc23)c1
[14]
  AC50: 7.94 µM (inconclusive)
[4]
  AC50: 2 µM (inconclusive)

## O=C1c2cccc3c([N+](=O)[O-])ccc(c23)C(=O)N1CCc1ccccn1
[1]
  CC50: 7.83 µM (active)

## Cc1cc(C(C)(C)CC(C)(C)C)ccc1OCCOCC[N+](C)(C)Cc1ccccc1 [METHYLBENZETHONIUM]
[13]
  AC50: 12.6 µM (inconclusive)
[4]
  AC50: 12.6 µM (inconclusive)
